In PMC10695193 (RSC Advances, 2023):

Assays:
A549 = test: MTT anti-proliferative assay, A549; assay type: cell-based; conditions: for IC50: Homo sapiens, A549, 72 h, read-out: IC50 A549; for folds toxic in A549 than in ordinary VERO cells: A549 versus VERO
HepG2 = test: MTT anti-proliferative assay, HepG2; assay type: cell-based; conditions: for IC50: Homo sapiens, HepG2, 72 h, read-out: IC50 HepG2; for fold times more toxic in HepG-2 than in VERO normal cells: HepG-2 versus VERO
HCT-116 = test: MTT anti-proliferative assay, HCT-116; assay type: cell-based; conditions: for IC50: Homo sapiens, HCT-116, 72 h, read-out: IC50 HCT116; for folds toxic in HCT-116 than in normal VERO cells: HCT-116 versus VERO
EGFR^T790M = EGFR^T790M (Homo sapiens, UniProt P00533, T790M); test: EGFR^T790M kinase inhibitory assay; assay type: biochemical
EGFR^T790M, sequence (P00533 25-1210 T790M): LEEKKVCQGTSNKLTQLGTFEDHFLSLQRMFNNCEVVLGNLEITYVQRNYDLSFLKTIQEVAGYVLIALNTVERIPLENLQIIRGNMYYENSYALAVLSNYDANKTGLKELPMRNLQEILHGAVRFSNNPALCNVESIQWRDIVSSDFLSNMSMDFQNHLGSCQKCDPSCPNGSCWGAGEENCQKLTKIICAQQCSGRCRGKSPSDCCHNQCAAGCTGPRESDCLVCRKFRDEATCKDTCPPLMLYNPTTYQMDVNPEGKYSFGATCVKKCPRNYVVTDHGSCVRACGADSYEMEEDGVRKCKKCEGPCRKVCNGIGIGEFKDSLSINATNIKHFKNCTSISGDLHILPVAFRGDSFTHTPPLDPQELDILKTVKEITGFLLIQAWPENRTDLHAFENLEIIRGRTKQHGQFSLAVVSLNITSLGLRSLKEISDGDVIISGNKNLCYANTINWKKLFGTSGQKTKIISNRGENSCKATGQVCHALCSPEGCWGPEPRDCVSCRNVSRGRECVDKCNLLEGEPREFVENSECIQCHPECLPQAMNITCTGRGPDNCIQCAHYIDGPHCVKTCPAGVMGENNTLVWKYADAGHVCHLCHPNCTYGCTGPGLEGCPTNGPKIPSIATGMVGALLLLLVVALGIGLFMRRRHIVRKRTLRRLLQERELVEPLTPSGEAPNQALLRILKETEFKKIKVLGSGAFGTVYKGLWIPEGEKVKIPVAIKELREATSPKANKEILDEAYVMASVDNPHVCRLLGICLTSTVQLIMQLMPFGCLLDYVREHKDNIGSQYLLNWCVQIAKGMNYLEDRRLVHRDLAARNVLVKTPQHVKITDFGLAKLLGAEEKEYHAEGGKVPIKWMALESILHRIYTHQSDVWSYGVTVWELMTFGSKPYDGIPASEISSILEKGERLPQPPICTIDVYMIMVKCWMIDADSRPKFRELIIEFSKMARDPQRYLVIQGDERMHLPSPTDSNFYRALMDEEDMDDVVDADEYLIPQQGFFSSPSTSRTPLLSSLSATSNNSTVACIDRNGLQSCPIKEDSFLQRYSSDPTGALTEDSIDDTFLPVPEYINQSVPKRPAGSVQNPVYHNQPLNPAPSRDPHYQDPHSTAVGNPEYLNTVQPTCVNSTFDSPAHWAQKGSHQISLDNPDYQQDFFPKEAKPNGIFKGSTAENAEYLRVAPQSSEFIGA

MCF-7 = test: MTT anti-proliferative assay, MCF-7; assay type: cell-based; conditions: for IC50: Homo sapiens, MCF7, 72 h, read-out: IC50 MCF-7; for folds toxic in MCF-7 than in ordinary VERO cells: MCF-7 versus VERO
VEGFR-2 = VEGFR-2 (Homo sapiens, UniProt P35968); test: VEGFR-2 kinase inhibitory assay; assay type: biochemical
VEGFR-2, sequence (P35968 20-1356): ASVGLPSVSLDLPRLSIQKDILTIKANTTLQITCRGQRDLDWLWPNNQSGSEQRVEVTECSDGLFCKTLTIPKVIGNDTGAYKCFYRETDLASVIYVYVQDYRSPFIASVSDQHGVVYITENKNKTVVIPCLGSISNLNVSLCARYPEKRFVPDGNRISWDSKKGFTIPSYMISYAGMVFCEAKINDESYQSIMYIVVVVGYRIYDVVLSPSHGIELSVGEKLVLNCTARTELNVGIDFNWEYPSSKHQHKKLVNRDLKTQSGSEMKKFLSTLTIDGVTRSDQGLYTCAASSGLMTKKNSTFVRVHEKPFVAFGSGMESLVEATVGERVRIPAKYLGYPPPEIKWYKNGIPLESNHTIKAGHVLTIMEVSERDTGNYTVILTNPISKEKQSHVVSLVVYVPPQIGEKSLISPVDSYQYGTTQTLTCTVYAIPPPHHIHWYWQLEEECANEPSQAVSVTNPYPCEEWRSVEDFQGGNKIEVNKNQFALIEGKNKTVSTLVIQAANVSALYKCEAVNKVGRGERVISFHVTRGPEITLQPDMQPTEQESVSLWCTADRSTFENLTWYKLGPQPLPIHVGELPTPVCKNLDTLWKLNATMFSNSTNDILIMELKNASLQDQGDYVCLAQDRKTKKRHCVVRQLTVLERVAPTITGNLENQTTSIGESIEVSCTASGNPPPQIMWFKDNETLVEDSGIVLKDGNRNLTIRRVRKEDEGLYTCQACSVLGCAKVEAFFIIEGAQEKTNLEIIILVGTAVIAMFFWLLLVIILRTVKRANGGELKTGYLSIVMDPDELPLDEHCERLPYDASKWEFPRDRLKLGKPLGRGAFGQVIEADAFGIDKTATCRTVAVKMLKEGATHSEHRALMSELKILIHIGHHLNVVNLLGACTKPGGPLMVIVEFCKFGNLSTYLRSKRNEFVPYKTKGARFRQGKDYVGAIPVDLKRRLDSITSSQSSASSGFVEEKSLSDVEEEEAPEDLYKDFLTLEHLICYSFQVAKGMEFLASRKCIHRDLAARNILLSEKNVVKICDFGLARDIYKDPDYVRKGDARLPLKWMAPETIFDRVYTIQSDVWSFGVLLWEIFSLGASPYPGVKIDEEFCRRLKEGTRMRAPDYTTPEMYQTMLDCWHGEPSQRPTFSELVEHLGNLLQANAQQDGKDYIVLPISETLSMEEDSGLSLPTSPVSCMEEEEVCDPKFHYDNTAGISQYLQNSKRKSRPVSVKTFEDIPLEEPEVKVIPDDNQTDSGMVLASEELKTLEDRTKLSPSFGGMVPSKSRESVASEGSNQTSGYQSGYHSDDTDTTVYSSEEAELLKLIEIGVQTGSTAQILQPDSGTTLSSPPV

Row | Compound | IC50 (A549) | IC50 (HepG2) | IC50 (HCT-116) | IC50 (EGFR^T790M) | IC50 (MCF-7) | IC50 (VEGFR-2) | folds toxic in A549 than in ordinary VERO cells (A549) | fold times more toxic in HepG-2 than in VERO normal cells (HepG2) | folds toxic in HCT-116 than in normal VERO cells (HCT-116) | folds toxic in MCF-7 than in ordinary VERO cells (MCF-7)
1 | NC1=NOC(=O)C1=NNc1ccc(N=Nc2ccccc2)cc1 [Compound 3, 3-Amino-4-{2-[4-(phenyldiazenyl)phenyl]hydrazono}isoxazol-5(4H)-one] | 25.5 ± 3.5 µM | 19 ± 4.4 µM | 16.8 ± 3.7 µM | 2.1 ± 0.25 µM | 17.6 ± 4.5 µM | 3.25 ± 0.5 µM |  |  |  | 
2 | NC1=NN(c2ccc([N+](=O)[O-])cc2[N+](=O)[O-])C(=O)C1=NNc1ccc(N=Nc2ccccc2)cc1 [Compound 6, 5-Amino-2-(2,4-dinitrophenyl)-4-{2-[4-(phenyldiazenyl)phenyl]hydrazono}-2,4-dihydro-3H-pyrazol-3-one] | 5.88 ± 0.5 µM | 8.17 ± 2.6 µM | 10.1 ± 2.9 µM | 0.35 ± 0.15 µM | 9.11 ± 2.7 µM | 1.6 ± 0.5 µM | 6.54 folds | 5.49 fold | 4.47 folds | 4.59 folds
3 | N#Cc1nn(-c2ccc(N=Nc3ccccc3)cc2)c(=N)[nH]c1=O [Compound 13, 3-Imino-5-oxo-2-[4-(phenyldiazenyl)phenyl]-2,3,4,5-tetrahydro-1,2,4-triazine-6-carbonitrile] | 15.5 ± 2.5 µM | 20.5 ± 4.2 µM | 20.1 ± 3.5 µM | 1.5 ± 0.15 µM | 23.1 ± 3.8 µM | 3.35 ± 0.5 µM |  |  |  | 
4 | N#Cc1nn(-c2ccc(N=Nc3ccccc3)cc2)c(=S)[nH]c1=O [Compound 11, 5-Oxo-2-[4-(phenyldiazenyl)phenyl]-3-thioxo-2,3,4,5-tetrahydro-1,2,4-triazine-6-carbonitrile] | 30.2 ± 3.5 µM | 35.6 ± 4.8 µM | 37.9 ± 4.6 µM | 2.5 ± 0.35 µM | 39.2 ± 4.8 µM | 3.85 ± 0.5 µM |  |  |  | 
5 | N#CC(=NNc1ccc(N=Nc2ccccc2)cc1)c1nc(=S)[nH][nH]1 [Compound 9, N-[4-(Phenyldiazenyl)phenyl]-5-thioxo-2,5-dihydro-1H-1,2,4-triazole-3-carbohydrazonoyl-cyanide] | 12.2 ± 2.5 µM | 14.5 ± 2.8 µM | 16.8 ± 3.3 µM | 1.35 ± 0.15 µM | 13.8 ± 3 µM | 2 ± 0.1 µM |  |  |  | 
6 | NC(=O)N1N=C(N)C(N=Nc2ccc(N=Nc3ccccc3)cc2)C1=O (stereo not drawn) [Compound 7, 3-Amino-5-oxo-4-{[4-(phenyldiazenyl)phenyl]diazenyl}-4,5-dihydro-1H-pyrazole-1-carboxamide] | 8.5 ± 0.5 µM | 15.6 ± 3.5 µM | 17.5 ± 4 µM | 0.9 ± 0.25 µM | 14.2 ± 3.5 µM | 2.35 ± 0.2 µM |  |  |  | 
7 | C#Cc1cccc(Nc2ncnc3cc(OCCOC)c(OCCOC)cc23)c1 [Erlotinib, reference compound] |  |  |  |  | 8.2 ± 0.34 µM |  |  |  |  | 
8 | NC1=NNC(=O)C1=NNc1ccc(N=Nc2ccccc2)cc1 [Compound 4, 5-Amino-4-{2-[4-(phenyldiazenyl)phenyl]hydrazono}-2,4-dihydro-3H-pyrazol-3-one] | 10.8 ± 1.5 µM | 10.6 ± 3 µM | 11.3 ± 3.1 µM | 1.2 ± 0.35 µM | 11.3 ± 3.3 µM | 1.85 ± 0.1 µM |  |  |  | 
9 | NC1=NN(c2ccccc2)C(=O)C1=NNc1ccc(N=Nc2ccccc2)cc1 [Compound 5, 5-Amino-2-phenyl-4-{2-[4-(phenyldiazenyl)phenyl]hydrazono}-2,4-dihydro-3H-pyrazol-3-one] | 6.5 ± 1.5 µM | 7.8 ± 0.7 µM | 8.12 ± 0.9 µM | 0.4 ± 0.35 µM | 6.98 ± 1.1 µM | 1.25 ± 0.5 µM | 8.86 folds | 5.72 fold | 5.53 folds | 6.21 folds
10 | N#Cc1nn(-c2ccc(N=Nc3ccccc3)cc2)c(=S)n(-c2ccccc2)c1=O [Compound 10, 5-Oxo-4-phenyl-2-[4-(phenyldiazenyl)phenyl]-3-thioxo-2,3,4,5-tetrahydro-1,2,4-triazine-6-carbonitrile] | 7.35 ± 1.5 µM | 6.81 ± 1.9 µM | 9.23 ± 2.2 µM | 0.5 ± 0.25 µM | 7.28 ± 2.4 µM | 1.5 ± 0.1 µM | 8.67 folds | 6.39 fold | 4.96 folds | 5.81 folds
11 | N#Cc1nn(-c2ccc(N=Nc3ccccc3)cc2)c(=O)[nH]c1=O [Compound 12, 3,5-Dioxo-2-[4-(phenyldiazenyl)phenyl]-2,3,4,5-tetrahydro-1,2,4-triazine-6-carbonitrile] | 9.25 ± 1.5 µM | 21.1 ± 4.9 µM | 22.5 ± 4.8 µM | 0.95 ± 0.35 µM | 30.2 ± 4.8 µM | 3.5 ± 0.5 µM |  |  |  | 
12 | N#Cc1nn(-c2ccc(N=Nc3ccccc3)cc2)c(=N)n(S(=O)(=O)c2ccc(N)cc2)c1=O [Compound 14, 4-[(4-Aminophenyl)sulfonyl]-3-imino-5-oxo-2-[4-(phenyldiazenyl)phenyl]-2,3,4,5-tetrahydro-1,2,4-triazine-6-carbonitrile] | 5.15 ± 1.5 µM | 6.23 ± 2.3 µM | 8.44 ± 2.6 µM | 0.25 ± 0.15 µM | 6.37 ± 2.5 µM | 0.95 ± 0.1 µM | 10.72 folds | 6.86 fold | 7.68 folds | 5.76 folds
13 | CNC(=O)c1cc(Oc2ccc(NC(=O)Nc3ccc(Cl)c(C(F)(F)F)c3)cc2)ccn1 [Sorafenib, reference compound] |  | 4 ± 0.33 µM |  |  |  |  |  |  |  | 
